Key:
Test in all cases: relative viability (nuclei count vs DMSO), 5 days (fraction); higher = more cells survive
[1] = tested on: HCC-78
Method in brief: (§1)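 For relative viability, nuclei counts in treated wells were divided by those in vehicle wells. Lung cancer cell lines had been pin-tool dosed in 1536-well plates the day after seeding and cultured for 5 days, then fixed and stained in one step (final 0.05% Triton X-100, 1% formaldehyde, 1 ug/ml Hoechst) and imaged at 4×. Doses were one drug alone or a fixed anchor-drug dose plus five library-drug doses (not always all listed) in √10 steps, and values are duplicate-plate medians.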

[2] = tested on: COR-L 105
Method in brief: as §1

[3] = tested on: NCI-H1437
Method in brief: as §1

[4] = tested on: SK-LU-1
Method in brief: as §1

[5] = tested on: LOU-NH91
Method in brief: as §1

[6] = tested on: NCI-H1734
Method in brief: as §1

[7] = tested on: NCI-H358
Method in brief: as §1

[8] = tested on: EKVX
Method in brief: as §1

[9] = tested on: NCI-H522
Method in brief: as §1

[10] = tested on: NCI-H2085
Method in brief: as §1

[11] = tested on: LK-2
Method in brief: as §1

[12] = tested on: SW 900
Method in brief: as §1

[13] = tested on: NCI-H1792
Method in brief: as §1

[14] = tested on: NCI-H1648
Method in brief: as §1

[15] = tested on: BEN
Method in brief: as §1

[16] = tested on: HCC-827
Method in brief: as §1

[17] = tested on: EPLC-272H
Method in brief: as §1

[18] = tested on: LU99A
Method in brief: as §1

[19] = tested on: UMC-11
Method in brief: as §1

[20] = tested on: NCI-H1650
Method in brief: as §1

[21] = tested on: EMC-BAC-2
Method in brief: as §1

[22] = tested on: NCI-H647
Method in brief: as §1

[23] = tested on: NCI-H2023
Method in brief: as §1

[24] = tested on: NCI-H650
Method in brief: as §1

C=C1C(=O)O[C@@H](CCCCCCCC)[C@@H]1C(=O)O [C-75] + O=C(c1cc(Cc2n[nH]c(=O)c3ccccc23)ccc1F)N1CCN(C(=O)C2CC2)CC1 [Olaparib] (partner 8 µM)
relative viability ([1]; first compound 0.08 µM): 0.838 | relative viability ([1]; first compound 0.253 µM): 1.08 | relative viability ([1]; first compound 0.8 µM): 0.81 | relative viability ([1]; first compound 8 µM): 0.823 | relative viability ([2]; first compound 0.08 µM): 0.719 | relative viability ([2]; first compound 0.253 µM): 0.75 | relative viability ([2]; first compound 0.8 µM): 0.668 | relative viability ([2]; first compound 2.53 µM): 0.62 | relative viability ([2]; first compound 8 µM): 0.523 | relative viability ([3]; first compound 0.08 µM): 0.614 | relative viability ([3]; first compound 0.253 µM): 0.684 | relative viability ([3]; first compound 0.8 µM): 0.642 | relative viability ([3]; first compound 8 µM): 0.648 | relative viability ([4]; first compound 0.08 µM): 0.465 | relative viability ([4]; first compound 0.253 µM): 0.451 | relative viability ([4]; first compound 0.8 µM): 0.454 | relative viability ([4]; first compound 2.53 µM): 0.393 | relative viability ([4]; first compound 8 µM): 0.377 | relative viability ([5]; first compound 0.08 µM): 0.909 | relative viability ([5]; first compound 0.253 µM): 0.786 | relative viability ([5]; first compound 0.8 µM): 0.878 | relative viability ([5]; first compound 8 µM): 0.88 | relative viability ([6]; first compound 0.08 µM): 0.546 | relative viability ([6]; first compound 0.253 µM): 0.569 | relative viability ([6]; first compound 0.8 µM): 0.277 | relative viability ([6]; first compound 2.53 µM): 0.506 | relative viability ([6]; first compound 8 µM): 0.608 | relative viability ([7]; first compound 0.08 µM): 0.642 | relative viability ([7]; first compound 0.253 µM): 0.623 | relative viability ([7]; first compound 0.8 µM): 0.534 | relative viability ([7]; first compound 8 µM): 0.575 | relative viability ([8]; first compound 0.08 µM): 0.811 | relative viability ([8]; first compound 0.253 µM): 0.884 | relative viability ([8]; first compound 0.8 µM): 0.837 | relative viability ([8]; first compound 8 µM): 0.759 | relative viability ([9]; first compound 0.08 µM): 0.592 | relative viability ([9]; first compound 0.253 µM): 0.733 | relative viability ([9]; first compound 0.8 µM): 0.662 | relative viability ([9]; first compound 2.53 µM): 0.66 | relative viability ([9]; first compound 8 µM): 0.547 | relative viability ([10]; first compound 0.08 µM): 0.766 | relative viability ([10]; first compound 0.253 µM): 0.61 | relative viability ([10]; first compound 0.8 µM): 0.753 | relative viability ([10]; first compound 2.53 µM): 0.681 | relative viability ([10]; first compound 8 µM): 0.725 | relative viability ([11]; first compound 0.08 µM): 0.674 | relative viability ([11]; first compound 0.253 µM): 0.84 | relative viability ([11]; first compound 0.8 µM): 0.64 | relative viability ([11]; first compound 2.53 µM): 0.596 | relative viability ([11]; first compound 8 µM): 0.502 | relative viability ([12]; first compound 0.08 µM): 0.923 | relative viability ([12]; first compound 0.253 µM): 0.945 | relative viability ([12]; first compound 0.8 µM): 1.05 | relative viability ([12]; first compound 2.53 µM): 0.803 | relative viability ([12]; first compound 8 µM): 0.977 | relative viability ([13]; first compound 0.08 µM): 0.384 | relative viability ([13]; first compound 0.253 µM): 0.438 | relative viability ([13]; first compound 0.8 µM): 0.462 | relative viability ([13]; first compound 2.53 µM): 0.306 | relative viability ([13]; first compound 8 µM): 0.431 | relative viability ([14]; first compound 0.08 µM): 0.921 | relative viability ([14]; first compound 0.253 µM): 1.3 | relative viability ([14]; first compound 0.8 µM): 0.597 | relative viability ([14]; first compound 8 µM): 1.03 | relative viability ([15]; first compound 0.08 µM): 1.22 | relative viability ([15]; first compound 0.253 µM): 1.07 | relative viability ([15]; first compound 0.8 µM): 1.04 | relative viability ([15]; first compound 2.53 µM): 0.771 | relative viability ([15]; first compound 8 µM): 0.914 | relative viability ([16]; first compound 0.253 µM): 0.622 | relative viability ([16]; first compound 0.8 µM): 0.595 | relative viability ([16]; first compound 8 µM): 0.657 | relative viability ([17]; first compound 0.08 µM): 0.874 | relative viability ([17]; first compound 0.253 µM): 0.878 | relative viability ([17]; first compound 0.8 µM): 0.702 | relative viability ([17]; first compound 2.53 µM): 0.701 | relative viability ([17]; first compound 8 µM): 0.436 | relative viability ([18]; first compound 0.08 µM): 0.255 | relative viability ([18]; first compound 0.253 µM): 0.245 | relative viability ([18]; first compound 0.8 µM): 0.25 | relative viability ([18]; first compound 2.53 µM): 0.245 | relative viability ([18]; first compound 8 µM): 0.205 | relative viability ([19]; first compound 0.08 µM): 0.37 | relative viability ([19]; first compound 0.253 µM): 0.38 | relative viability ([19]; first compound 0.8 µM): 0.352 | relative viability ([19]; first compound 2.53 µM): 0.27 | relative viability ([19]; first compound 8 µM): 0.335 | relative viability ([20]; first compound 0.08 µM): 0.802 | relative viability ([20]; first compound 0.253 µM): 0.878 | relative viability ([20]; first compound 0.8 µM): 0.827 | relative viability ([20]; first compound 8 µM): 0.818 | relative viability ([21]; first compound 0.08 µM): 0.506 | relative viability ([21]; first compound 0.253 µM): 0.464 | relative viability ([21]; first compound 0.8 µM): 0.475 | relative viability ([21]; first compound 2.53 µM): 0.389 | relative viability ([21]; first compound 8 µM): 0.389 | relative viability ([22]; first compound 0.08 µM): 0.522 | relative viability ([22]; first compound 0.253 µM): 0.727 | relative viability ([22]; first compound 0.8 µM): 0.452 | relative viability ([22]; first compound 2.53 µM): 0.495 | relative viability ([22]; first compound 8 µM): 0.354 | relative viability ([23]; first compound 0.08 µM): 0.529 | relative viability ([23]; first compound 0.253 µM): 0.579 | relative viability ([23]; first compound 0.8 µM): 0.436 | relative viability ([23]; first compound 8 µM): 0.395 | relative viability ([24]; first compound 0.08 µM): 0.397 | relative viability ([24]; first compound 0.253 µM): 0.438 | relative viability ([24]; first compound 0.8 µM): 0.457 | relative viability ([24]; first compound 2.53 µM): 0.397 | relative viability ([24]; first compound 8 µM): 0.4

— the supplement of paper PMC10307832
